The values below are quoted from earlier work in US7491718B2, “Sulfonamides having antiangiogenic and anticancer activity” (Abbott Laboratories, priority 2002, dated 2009).

This data set deals with type 2-methionine aminopeptidase (MetAP-2) (Homo sapiens, UniProt P50579). As to conditions: reported in Proc. Natl. Acad. Sci. USA 94: 6099-6103 (1997) and Chemistry and Biology, 4(6): 461-471 (1997).

SMILES strings stand for the structures.

type 2-methionine aminopeptidase (MetAP-2), sequence (P50579 whole entry, species assumed): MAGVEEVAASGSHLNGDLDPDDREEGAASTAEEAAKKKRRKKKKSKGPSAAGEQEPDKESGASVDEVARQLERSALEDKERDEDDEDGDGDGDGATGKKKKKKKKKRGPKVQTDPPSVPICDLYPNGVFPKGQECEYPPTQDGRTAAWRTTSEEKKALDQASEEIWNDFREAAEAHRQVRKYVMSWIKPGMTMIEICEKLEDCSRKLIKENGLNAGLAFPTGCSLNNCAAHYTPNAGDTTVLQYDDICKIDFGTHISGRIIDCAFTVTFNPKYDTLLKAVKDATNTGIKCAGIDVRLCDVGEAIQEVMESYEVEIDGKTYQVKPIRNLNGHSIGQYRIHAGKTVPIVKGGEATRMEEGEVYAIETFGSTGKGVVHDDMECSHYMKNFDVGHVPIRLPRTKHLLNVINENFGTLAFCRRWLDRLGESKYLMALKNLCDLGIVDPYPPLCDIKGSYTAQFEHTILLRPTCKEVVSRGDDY

For `CO[C@@H]1[C@H](OC(=O)NC(=O)CCl)CC[C@]2(CO2)[C@H]1[C@@]1(C)O[C@@H]1CC=C(C)C` [AGM-1470], the “binding to MetAP-2” value was “bind”.
